Measured values published in the supplement of paper PMC10307832.

Assays:
Assay in all cases: relative viability (nuclei count vs DMSO), 5 days (fraction); higher = more cells survive
[1] = compound: CCC1=CN=CN=C1N2CCN(CC2)CC3=NC4=C(N3)C=C(C=C4)C(F)(F)F + COc1cc2c(Oc3ccc(NC(=O)C4(C(=O)Nc5ccc(F)cc5)CC4)cc3F)ccnc2cc1OCCCN1CCOCC1 [Foretinib] (partner 0.25 µM)
In short: (§1)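 One day after seeding in 1536-well plates, lung cancer cell lines were dosed by pin tool. Dosing was either single-drug or a fixed anchor-drug dose plus five library-drug doses (not always all listed) in √10 steps. After 5 days, nuclei were stained in one fix-and-stain step and counted on 4× images, and relative viability is the nuclei count of treated wells over that of vehicle wells, given as the median of duplicate plates.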

[2] = compound: CCn1c(-c2nonc2N)nc2cnc(Oc3cccc(NC(=O)c4ccc(OCCN5CCOCC5)cc4)c3)cc21 + COc1cc2c(Oc3ccc(NC(=O)C4(C(=O)Nc5ccc(F)cc5)CC4)cc3F)ccnc2cc1OCCCN1CCOCC1 [Foretinib] (partner 0.25 µM)
In short: as §1

Mirin + AZD7762 = compound: N=C1NC(=O)/C(=C/c2ccc(O)cc2)S1 [Mirin] + NC(=O)Nc1cc(-c2cccc(F)c2)sc1C(=O)N[C@H]1CCCNC1 [AZD7762] (partner 0.2 µM)
In short: as §1

[3] = compound: CCn1c(-c2nonc2N)nc2cnc(Oc3cccc(NC(=O)c4ccc(OCCN5CCOCC5)cc4)c3)cc21 + CCNC(=O)c1noc(-c2cc(C(C)C)c(O)cc2O)c1-c1ccc(CN2CCOCC2)cc1 [Luminespib] (partner 0.01 µM)
In short: as §1

Cell Line | relative viability ([1]; first compound 0.04 µM) | relative viability ([1]; first compound 0.1265 µM) | relative viability ([1]; first compound 0.4 µM) | relative viability ([1]; first compound 1.265 µM) | relative viability ([1]; first compound 4 µM) | relative viability ([2]; first compound 0.04 µM) | relative viability ([2]; first compound 0.1265 µM) | relative viability ([2]; first compound 0.4 µM) | relative viability ([2]; first compound 1.265 µM) | relative viability ([2]; first compound 4 µM) | relative viability (Mirin + AZD7762; first compound 0.25 µM) | relative viability (Mirin + AZD7762; first compound 0.7906 µM) | relative viability (Mirin + AZD7762; first compound 2.5 µM) | relative viability (Mirin + AZD7762; first compound 7.906 µM) | relative viability (Mirin + AZD7762; first compound 25 µM) | relative viability ([3]; first compound 0.04 µM) | relative viability ([3]; first compound 0.1265 µM) | relative viability ([3]; first compound 0.4 µM) | relative viability ([3]; first compound 1.265 µM) | relative viability ([3]; first compound 4 µM)
NCI-H1915 | 1.11 | 1.06 | 1.04 | 0.943 | 0.996 | 1.09 | 1.14 | 1.1 | 1.08 | 1.12 | 0.674 | 0.726 | 0.712 | 0.59 | 0.745 | 0.905 | 0.831 | 0.949 | 0.775 | 0.716
NCI-H2009 | 1.23 | 1.25 | 1.16 | 1.24 | 1.21 | 1.07 | 0.974 | 0.921 | 0.642 | 0.356 | – | – | – | – | – | 1 | 0.804 | 0.822 | 0.599 | 0.394
ChaGo-K-1 | 1.02 | 0.992 | 0.794 | 0.814 | 0.891 | 0.97 | 0.942 | 0.908 | 0.769 | 0.856 | 0.832 | 0.825 | 0.868 | 0.835 | 0.755 | 0.586 | 0.691 | 0.706 | 0.48 | 0.454
COR-L 105 | 1.25 | 0.941 | 1.04 | 0.941 | 1.16 | 1.25 | 1 | 0.874 | 0.575 | 0.308 | – | – | – | – | – | 0.657 | 0.282 | 0.592 | 0.445 | 0.247
NCI-H2170 | 1.01 | 0.975 | 0.94 | 0.867 | 1 | 1 | 0.99 | 0.997 | 0.939 | 0.848 | 0.926 | 0.752 | 0.823 | 0.849 | 0.848 | 0.344 | 0.453 | 0.926 | 0.478 | 0.474
A549 | 0.851 | 0.903 | 0.937 | 0.816 | 0.905 | 1.19 | 0.985 | 1.06 | 0.246 | 0.12 | – | – | – | – | – | – | – | – | – | –
NCI-H1975 | 1 | 0.945 | 0.986 | 0.829 | 0.803 | 0.869 | 0.717 | 0.664 | 0.412 | 0.281 | 0.699 | 0.91 | 0.689 | 0.729 | 0.725 | 0.229 | 0.136 | 0.199 | 0.139 | 0.125
Calu-6 | 0.91 | 0.841 | 0.889 | 0.807 | 0.782 | 1.03 | 0.832 | 0.84 | 0.568 | 0.507 | – | – | – | – | – | – | – | – | – | –
NCI-H1648 | – | – | – | – | – | – | – | – | – | – | 0.722 | – | 0.652 | 0.641 | 0.576 | – | – | – | – | –
NCI-H1623 | 0.835 | 0.819 | 0.767 | 0.749 | 0.794 | 1.08 | 0.975 | 0.779 | 0.727 | 0.897 | – | – | – | – | – | 0.527 | 0.555 | 0.509 | 0.49 | 0.706
